Laboratory results taken from patent US20070280919A1, “Produce-treatment composition and method for treatment of fresh produce” (priority 2006, published 2007).

System: green mold (P. digitatum)
Assay: In vivo efficacy test on inoculated fruit, green mold incidence (FIG. 1)
Parameters: species or system Penicillium digitatum
Conditions: fruit puncture-inoculated with P. digitatum, imazalil at 0.1%
Procedure: In vivo efficacy tests for the formulation of Table 7 were carried out on Fallglo tangerines, pineapples, and Valencia oranges inoculated with Penicillium digtatum using a puncture method, in which the fruit was punctured with the tip of a 1 mm×1 mm probe that had been dipped into the inoculum solution (1×10^6 fungal spores/ml). The fruit was then subject to either a dip treatment procedure or a packingline dip treatment procedure twenty to twenty-four hours after inoculation. The dip treatment procedure involved dipping the inoculated fruit into the composition for one (1) minute. The packingline dip treatment procedure involved treating the fruit with suspensions or wax containing the produce-treatment composition using a non-recovery drip system through a simulated commercial packing line. Fruits were rotated on brush beds and contacted with chemicals for 15 to 20 seconds, and then dried at 50-54° C. for 1-2 minutes. In both procedures, the treated fruit was incubated at 21° C. with 95% relative humidity. FIG. 1 depicts a bar graph reporting the efficacy of the produce-treatment composition of Table 7 to green mold (P. digitatum), and comparing the results to those of a control (distilled water) and 0.1% imazalil. The inventive formulation reduced green-mold incidences to […], relative to untreated produce. […]

## C=CCOC(Cn1ccnc1)c1ccc(Cl)cc1Cl (centres unmarked) [imazalil]
Treated 20-24 h later, incubated at 21° C., 95% RH
  green-mold incidences: 51%
Relative to untreated produce
  reduction of green-mold incidences: 49%
